Measured values as given in patent publication US20110236897A1, “NOVEL MARKERS FOR […] DISEASE CAUSED BY BRAIN INJURY AND USE THEREOF” (priority 2010, published 2011).
“Also recorded” adds a separate entry of the source.

Test system: cerebral cortex of F1 C57BL/6N mice
Assay: Microarray expression profiling of F1 cerebral cortex after prenatal exposure to MDMA
[1] = F1 female, prenatal MDMA 20 mg/kg/day vs vehicle
[2] = F1 male, prenatal MDMA 20 mg/kg/day vs vehicle
[3] = common to F1 females and males, cerebral cortex, compared with control group, hydrochloride

CNC(C)Cc1ccc2c(c1)OCO2 (racemic) [MDMA]
differentially expressed genes after prenatal exposure to MDMA (female group) (F1 female cerebral cortex at 11 weeks, dams 20 mg/kg/day p.o. GD 6 to PND 21, vs vehicle, Welch's T-test P<0.05, 1.5 fold change cut-off): 1,784 genes | genes under-expressed in the female cerebral cortex [1]: 399 genes | genes up-regulated (over-expressed) in the female cerebral cortex [1]: 1,385 genes | differentially expressed genes after prenatal exposure to MDMA (male group) (F1 male cerebral cortex at 11 weeks, dams 20 mg/kg/day p.o. GD 6 to PND 21, vs vehicle, Welch's T-test P<0.05, 1.5 fold change cut-off): 804 genes | genes under-expressed in the male cerebral cortex [2]: 469 genes | genes up-regulated in the male cerebral cortex [2]: 335 genes | common genes selected from the differentially expressed genes of females and males (common to 1,784 genes of females and 804 genes of males): 90 genes | Expression change of the 1st to 36th genes of the 90 common genes [3]: reduced; also recorded: down- | Expression change of the 37th to 90th genes of the 90 common genes [3]: up- | effect on transcriptomic configuration of the cerebral cortex among offspring (maternal ingestion during pregnancy and lactation, F1 generation, hydrochloride): considerably affected; also recorded: this change was permanent
